Patent US20240043860A1, “NOVEL HYDROXYPHENYLPYRUVATE DIOXYGENASE POLYPEPTIDES AND METHODS OF USE THEREOF” (Syngenta Crop Protection AG, priority 2020, published 2024)
“And” between values parts separate entries of the source, which are not always exact repeats. Identical values can stand only once.

Assays:
[1] = system: transgenic tobacco plants expressing mutant HPPD SEQ ID NO: 125; test: spray test, herbicidal damage scoring; assay type: in vivo; conditions: Table 4.3, 7 days after treatment, 100=complete death, 0=no damage, one value per event
Description: (§1) DNA sequences that encode these polypeptides (optimized for tobacco or, optionally, codon optimized according to a target crop such as soybean) were prepared synthetically. Each sequence was designed to include a 5′ fusion with TMV omega 5′ leader sequence such that they are flanked at the 5′ end with XhoI and at the 3′ end with KpnI to facilitate direct cloning into a suitable binary vector for Agrobacterium-based plant transformation.
(§2) For example, a master plate of Agrobacterium tumefaciens containing the HPPD expressing the binary vector is used to inoculate 10 ml LB (L broth) containing 100 mg/l Rifampicin plus 50 mg/l Kanamycin using a single bacterial colony. This is incubated overnight at 28° C. shaking at 200 rpm. This entire overnight culture is used to inoculate a 50 ml volume of LB containing the same antibiotics. Again this is cultured overnight at 28° C. shaking at 200 rpm. The Agrobacterium cells are pelleted by centrifuging at 3000 rpm for 15 minutes and then resuspended in MS (Murashige and Skoog) medium containing 30 g/l sucrose, pH 5.9 to an OD […]=0.6. This suspension is dispensed in 25 ml aliquots into petri dishes.
(§3) Once rooted, plantlets are transferred from agar and potted into 50% peat, 50% John Innes Soil No. 3 or, for example, MetroMix® 380 soil (Sun Gro Horticulture, Bellevue, WA) with slow-release fertilizer in 3 inch round or 4 inch square pots and left regularly watered to establish for 8-12d in the glass house. Glass house conditions are about 24-27° C. day; 18-21° C. night and approximately a 14h (or longer in UK summer) photoperiod.
(§4) About 20-30 TO events are produced for a number of HPPD variant genes.
(§5) Single copy events amongst the Ti plant lines are identified by their 3:1 segregation ratio (with respect to kanamycin and/or herbicide) and by quantitative RT-PCR. Seed from the thus selected Ti tobacco (var. Samsun) lines are sown in 3 inch diameter pots containing 50% peat and 50% John Innes Soil No. 3. […] HPPD expression levels were monitored by Western analysis.
(§6) Tables 4.1-4.9 show the herbicidal damage scoring on transgenic tobacco plants 7 days after treatment. A score of 100=complete death and 0=no damage observed.

[2] = system: transgenic tobacco plants expressing mutant HPPD SEQ ID NO: 122; test: spray test, herbicidal damage scoring; assay type: in vivo; conditions: Table 4.4; 7 days after treatment; SEQ ID NO: 122; 100=complete death, 0=no damage; one value per event
Description: as §1, §2, §3, §4, §5, §6

[3] = system: transgenic tobacco plants expressing mutant HPPD SEQ ID NO: 124; test: spray test, herbicidal damage scoring; assay type: in vivo; conditions: Table 4.2, 7 days after treatment, 100=complete death, 0=no damage, one value per event
Description: as §1, §2, §3, §4, §5, §6

wild-type tobacco plants = test: spray test, herbicidal damage scoring; assay type: in vivo; conditions: Table 4.1, 7 days after treatment, 100=complete death, 0=no damage, one value per plant/event
Description: as §3, §4, §6

[4] = system: transgenic tobacco plants expressing mutant HPPD SEQ ID NO: 14; test: spray test, herbicidal damage scoring; assay type: in vivo; conditions: for tolerance compared to SEQ ID 122 expressing plants: SEQ ID 14 plants, 800 g/ha Mesotrione, 400 g/ha Tembotrione or 400 g/ha Isoxaflutole (Table 3.2)
Description: as §1, with “Avena sativa HPPD or orthologues and variants thereof, for example SEQ IDs 1-63 and 122-127, were expressed in transgenic tobacco. DNA” for “DNA”
In one example, the TMV omega 5′ leader and a HPPD encoding gene of interest is excised using XhoI/KpnI and cloned into similarly digested binary vector pBIN 19 (Bevan, Nucl. Acids Res. (1984) behind a double enhanced 35S promoter ahead of a NOS 3′ transcription terminator and then transformed into E. coli DH5 alpha competent cells. DNA recovered from the E. coli is used to transform Agrobacterium tumefaciens LBA4404, and transformed bacteria are selected on media contain rifampicin and kanamycin. Tobacco tissue is subjected to Agrobacterium-mediated transformation using methods well described in the art or as described herein. For example, a master plate of Agrobacterium tumefaciens containing the HPPD expressing the binary vector is used to inoculate 10 ml LB (L broth) containing 100 mg/l Rifampicin plus 50 mg/l Kanamycin using a single bacterial colony. This is incubated overnight at 28° C. shaking at 200 rpm. This entire overnight culture is used to inoculate a 50 ml volume of LB containing the same antibiotics. Again this is cultured overnight at 28° C. shaking at 200 rpm. The Agrobacterium cells are pelleted by centrifuging at 3000 rpm for 15 minutes and then resuspended in MS (Murashige and Skoog) medium containing 30 g/l sucrose, pH 5.9 to an OD […]=0.6. This suspension is dispensed in 25 ml aliquots into petri dishes.
Once rooted, plantlets are transferred from agar and potted into 50% peat, 50% John Innes Soil No. 3 or, for example, MetroMix® 380 soil (Sun Gro Horticulture, Bellevue, WA) with slow-release fertilizer in 3 inch round or 4 inch square pots and left regularly watered to establish for 8-12d in the glass house. Glass house conditions are about 24-27° C. day; 18-21° C. night and approximately a 14h (or longer in UK summer) photoperiod. Humidity is adjusted to ˜65% and light levels used are up to 2000 umol/m^2 at bench level. Once new tissue emerged and plants reach the 2-4 leaf stage, some of the clones from each event are sprayed with an HPPD inhibitor of interest selected from the herbicides listed in reference to Example 1. […] For example Callisto® is mixed in water with 0.2-0.25% X-77 surfactant and sprayed from a boom on a suitable track sprayer moving at 2 mph in a DeVries spray chamber (Hollandale, MN) with the nozzle about 2 inches from the plant tops.
Plants are assessed for damage and scored at, for example, 7 and 14 days after treatment (DAT). About 20-30 TO events are produced for a number of HPPD variant genes.
Plants of events showing the least damage are grown to flowering, then bagged and allowed to self. […] Single copy events amongst the Ti plant lines are identified by their 3:1 segregation ratio (with respect to kanamycin and/or herbicide) and by quantitative RT-PCR. Seed from the thus selected Ti tobacco (var. Samsun) lines are sown in 3 inch diameter pots containing 50% peat and 50% John Innes Soil No. 3. After growth to the 3 leaf stage, plants are sprayed as described above in order to test for herbicide tolerance relative to like-treated non-transgenic tobacco plants, and also in comparison with like-treated Ti plants expressing the base HPPD SEQ IDs 122-125. HPPD expression levels were monitored by Western analysis. […]

[5] = system: HPPD variant APESV V209 (SEQ ID NO: 18); test: coupled HGO assay; assay type: biochemical, Apera spica-venti
Description: (§7) DNA sequences (SEQ ID NOs: 65-118, 128, 130, 131, and 133), synthesized for expression in E. coli, by GeneWiz (USA) to encode HPPD variants (SEQ ID NOs: 5-58, 122, 124, 125 and 127) derived from either Avena sativa (SEQ ID NOs: 122, 124), Alopecurus myosuroides (SEQ ID NO: 126) or Apera spica-venti (SEQ ID NOs: 123, 125) were transformed into E coli BL21 (DE3) (New England Biolabs) and grown in 0.5 ml Terrific broth +50 ug/ml Kanamycin media in a 96-deepwell block overnight (37° C., 900rpm). 25 ul of the overnight cultures were inoculated into fresh 96-deepwell block containing 1 ml Formedium Autoinduction Media (AIM). The AIM cultures were grown for 3h at 37° C. (900rpm) and then transferred to 20° C. overnight (900rpm) to allow protein expression. The overnight cultures were centrifuged and 500 ul of Cellytic B (Sigma Aldrich) was added to resuspend the cell pellets. The coupled HGO assay (Siehl et al, 2014) is used to generate IC50 values for the HPPD variants of interest.
(§8) E. coli BL21 (DE3) cells were transformed with a pET24a vector containing a C-terminally his-tagged Arabidopsis HGO gene, grown and induced overnight as described for the HPPD variants above. The cell pellet was resuspended in phosphate buffered saline at pH 7.4 containing 10% Glycerol, 1mm Tris[2-carboxyethyl] phosphine-HCl (TCEP) plus 30 mM Imidazole and lysed using lysozyme/benzonase. The extract was clarified by low speed centrifugation and purified in the same buffer down a 1 ml His Gravitrap column. The bound HGO was eluted in 0.25M imidazole and the fractions pooled and beaded into liquid nitrogen. All procedures apart from the centrifugation and beading steps were carried out under a nitrogen atmosphere.
(§9) The coupled HGO assay is carried out by adding 10 ul of HPPD extract to a 96-well plate and then adding 40 ul of reaction buffer (50 mM Bis Tris Propane, pH7.0, 25 mM sodium-L-ascorbate, 400μM mercaptoethanol, 50 μM Fe(II)SO4). The plates are left to incubate for 5 minutes on ice. […] 200 ul of HPP/HGO (197 μM hydroxyphenylpyruvic acid, 16 μl/ml Homogentisic Acid Oxidase in reaction buffer as described above) buffer is then added to the well and the reaction is regularly monitored (e.g. every 30 seconds-5 minutes) for absorbance at 330 nm for a given time period (e.g., for between 15-60 minutes). The data can then be used to calculate the IC50 value for each HPPD variant of interest.

[6] = system: HPPD variant APESV V200 (SEQ ID NO: 6); test: coupled HGO assay; assay type: biochemical, Apera spica-venti
Description: as §7, §8, §9

[7] = system: HPPD variant ALOME V200 (SEQ ID NO: 7); test: coupled HGO assay; assay type: biochemical, Alopecurus myosuroides
Description: as §7, §8, §9

[8] = system: HPPD variant ALOME V209 (SEQ ID NO: 19); test: coupled HGO assay; assay type: biochemical, Alopecurus myosuroides
Description: as §7, §8, §9

[9] = system: HPPD variant ALOME V162 (SEQ ID NO: 126); test: coupled HGO assay; assay type: biochemical, Alopecurus myosuroides
Description: as §7, §8, §9

[10] = system: transgenic tobacco plants expressing mutant HPPD SEQ ID NO: 122; test: spray test, herbicidal damage scoring; assay type: in vivo; conditions: Table 3.2; 14 days after treatment; best events, SEQ ID 122; 100=complete death, 0=no damage; one value per event

Cc1c(C(=O)c2cnn(C)c2O)ccc(S(C)(=O)=O)c1C1=NOCC1 [Topramezone, topramezone]
herbicidal damage scoring, Topramezone (100 g/ha) [1]: 0 | herbicidal damage scoring, Topramezone (100 g/ha) [2]: 0 | herbicidal damage scoring, Topramezone (100 g/ha) [3]: 0 | herbicidal damage scoring, Topramezone (100 g/ha) (wild-type tobacco plants): 98 and 97 and 99 and 95

CS(=O)(=O)c1cc(C(F)(F)F)ccc1C(=O)c1cnoc1C1CC1 [Isoxaflutole, isoxaflutole]
tolerance compared to SEQ ID 122 expressing plants [4]: equally tolerant | herbicidal damage scoring, Isoxaflutole (400 gai/ha) (wild-type tobacco plants): 95 and 97 and 96

CS(=O)(=O)c1ccc(C(=O)C2C(=O)CCCC2=O)c([N+](=O)[O-])c1 [Mesotrione, mesotrione]
tolerance compared to SEQ ID 122 expressing plants [4]: equally tolerant | IC50 [5]: 44.8 µM | IC50 [6]: 32.2 µM | IC50 [7]: 31.9 µM | IC50 [8]: 31.9 µM | IC50 [9]: 12.8 µM

CS(=O)(=O)c1ccc(C(=O)C2C(=O)CCCC2=O)c(Cl)c1COCC(F)(F)F [Tembotrione, tembotrione]
tolerance compared to SEQ ID 122 expressing plants [4]: increased tolerance | herbicidal damage scoring, Tembotrione (400 gai/ha) ([4]; Table 3.2, 14 days after treatment, best events, SEQ ID 14, 100=complete death, 0=no damage, one value per event): 25 and 30 | herbicidal damage scoring, Tembotrione (400 gai/ha) (wild-type tobacco plants): 97 and 95 and 98 | herbicidal damage scoring, Tembotrione (400 gai/ha) [10]: 45 and 50 and 55 and 65 and 40
